Laboratory results taken from US5554359A, “Pigmentation enhancer and method” (priority 1994, dated 1996).
Read-outs that look alike come from different tables or passages of the source.

Assays:
[1] = test system: tyrosinase activity in mouse melanoma cells; experiment: Tyrosinase responses in mouse melanoma cells (Table 6); format: cell-based; conditions: for Effect on Tyrosinase Activity, Mouse Melanoma: Table 6, 10^-7 M except IBMX 10^-4 M, theophylline 1 mM, ammonium chloride 10 mM, A23187 not given
Procedure: (§1) The mouse melanoma cell lines used to study the effects of lysosomotropic agents herein were the Cloudman S91 cell line (ATCC no. CCL 53.1) and two subclones of this line developed in our laboratory, the amelanotic line, AM-7, and a melanotic line, MEL-11A. All melanoma cell lines were grown in Ham's F-10 nutrient medium supplemented with 10% horse serum, penicillin (100 units/ml), and streptomycin (100 μg/ml). The normal human melanocyte cell strains used in this study were derived from foreskins of either neonares or from boys 2-6 years old. Human melanocyte cultures were grown in Ham's F-10 nutrient medium supplemented with 10% horse serum, 5% fetal bovine serum (FBS), 32 nM TPA (12-O-tetradecanoylphorbol 13-acetate), 10^-4 M IBMX(3-isobutyl-1-methylxanthine), penicillin (100 units/ml), and streptomycin (100 μg/ml).
To determine tyrosinase activity in situ in either melanoma cells or in human melanocyte cultures, the tyrosine hydroxylase activity of the enzyme was determined. Cells were seeded into 60-mm culture dishes at 2×10^5 cells/dish and allowed to attach overnight. The medium was then exchanged for the appropriate growth medium supplemented with 1 μCi/ml of [^3 H]tyrosine (L-ring-3,5-^3 H]-tyrosine, DuPont New England Nuclear), and with hormones, where indicated. Cells were grown in labeled medium for 24 hours, and at this time, the medium was removed and assayed for the presence of ^3 H2 O using the charcoal absorption method of Pomerantz. Tyrosinase activity in cell homogenates was determined by sonicating cell pellets in 0.1-M sodium phosphate buffer (pH 6.8) and then incubating 50-μl aliquots in 0.5 ml of a reaction mixture containing 0.1-mM tyrosine, 2 μCi/ml of [^3 H]tyrosine, 0.1-mM L-DOPA (dihydroxyphenylalanine), and 0.1 mM PMSF (phenylmethylsulfonyl fluoride) at 37° C. for 2 hours. Reactions were terminated by the addition of 1 ml of charcoal (10% w/v in 0.1-N HCl). Samples were centrifuged, and the supernatants removed for determination of the amount of ^3 H2 O produced. […]

[2] = test system: tyrosinase activity in human melanocytes; experiment: Tyrosinase responses in human melanocytes (Table 6); format: cell-based; conditions: Table 6, 10^-7 M except IBMX 10^-4 M, theophylline 1 mM, ammonium chloride 10 mM, A23187 not given, melanocytes from skin type III
Procedure: as §1
(§2) To determine tyrosinase activity in situ in either melanoma cells or in human melanocyte cultures, the tyrosine hydroxylase activity of the enzyme was determined. Cells were seeded into 60-mm culture dishes at 2×10^5 cells/dish and allowed to attach overnight. The medium was then exchanged for the appropriate growth medium supplemented with 1 μCi/ml of [^3 H]tyrosine (L-ring-3,5-^3 H]-tyrosine, DuPont New England Nuclear), and with hormones, where indicated. Cells were grown in labeled medium for 24 hours, and at this time, the medium was removed and assayed for the presence of ^3 H2 O using the charcoal absorption method of Pomerantz. Tyrosinase activity in cell homogenates was determined by sonicating cell pellets in 0.1-M sodium phosphate buffer (pH 6.8) and then incubating 50-μl aliquots in 0.5 ml of a reaction mixture containing 0.1-mM tyrosine, 2 μCi/ml of [^3 H]tyrosine, 0.1-mM L-DOPA (dihydroxyphenylalanine), and 0.1 mM PMSF (phenylmethylsulfonyl fluoride) at 37° C. for 2 hours. Reactions were terminated by the addition of 1 ml of charcoal (10% w/v in 0.1-N HCl). Samples were centrifuged, and the supernatants removed for determination of the amount of ^3 H2 O produced.
Hormone responsiveness in human melanocyte cell cultures were examined (for these studies, melanocytes derived from skin type III were used). […] Tyrosinase activity and melanin content typically double with a 48-hour exposure to IBMX. […] The steroid hormones, for the most part, caused little, if any, change in tyrosinase activity at the concentrations used.

[3] = test system: tyrosinase activity in mouse melanoma cells; conditions: Cloudman S91; cited from earlier work
[4] = test system: tyrosinase activity in human foreskin organ cultures; experiment: Tyrosinase activity in human foreskin organ cultures (tyrosine hydroxylase assay); format: cell-based; conditions: for activity at 1000 µM: Homo sapiens, read-out: Tyrosinase Activity, Percentage of control; for activity at 1000 µM / Tyrosinase activity stimulated, percentage of black foreskins / Tyrosinase activity unaffected, percentage of black foreskins / Tyrosinase activity stimulated, percentage of white foreskins / Tyrosinase activity unaffected, percentage of white foreskins: 72 h; for activity at 1000 µM / Tyrosinase Activity: Table 3, theophylline 1 mM, 3 days; for Tyrosinase activity stimulated, percentage of black foreskins / Tyrosinase activity unaffected, percentage of black foreskins / Tyrosinase activity stimulated, percentage of white foreskins / Tyrosinase activity unaffected, percentage of white foreskins: Table 1, Theophylline 1 mM, MSH 2 × 10^-7 M, dbcAMP 0.1 mM, D-phe-MSH 10^-8 M; for Tyrosinase activity stimulated, percentage of black foreskins / Tyrosinase activity unaffected, percentage of black foreskins: B = black; for Tyrosinase activity stimulated, percentage of white foreskins / Tyrosinase activity unaffected, percentage of white foreskins: W = white; for stimulation of tyrosinase activity: human foreskins, 72 hours
Procedure: At the time of surgical removal, human foreskins were placed on sterile gauze saturated with sterile IMDM medium (Iscove's modified Dulbecco's medium purchased from Irvine Scientific of Santa Ana, Calif.) for transportation from the Hospital nursery to the laboratory. The tissues were rinsed in sterile IMDM medium containing 500 U/ml penicillin and 500 μg/ml of streptomycin for 5 minutes. Under sterile conditions, an intradermal injection of medium was performed from the dermal side prior to dissection of the mucous membrane and lower dermis by scissors to make the thickness of skins equal. The foreskins were then cut into approximately 3 mm×3 mm squares and either frozen at -75° C. or placed in organ culture as described hereafter.
The organ culture medium was prepared from IMDM with glutamine supplemented with 20% horse serum, 5% fetal bovine serum, 100 U/ml penicillin, 100 μg/ml streptomycin and 3 mg/ml sodium bicarbonate. The serums were obtained from Hyclone Lab. Inc. of Logan Utah. Culture units were prepared by placing sterilized filters (AP20 025 00, Millipore) over sterilized support screens ([…] Swinnex filter support screens, Millipore) in the wells of 6-well tissue culture plates (Falcon 3046) with medium added to the wells such that the skin support screens floated and the filter absorbed the medium from beneath. The tissue samples were placed, epidermis up, on top of the saturated filters and incubated at 37° C. in a 5% CO2 humidified atmosphere. The medium was changed everyday. Harvested cultures were frozen at -75° C.
Tyrosinase activity in human skin organ cultures was determined by measuring the tyrosine hydroxylase activity of the enzyme. The assay measures the production of ^3 H2 O during the conversion of [^3 H]tyrosine to L-DOPA. Weighed skin preparations were incubated in 0.3 ml of a reaction mixture containing 0.01 mM of L-tyrosine, 5-6 uCi/ml of [^3 H]tyrosine and 0.1 mM L-DOPA in 0.1M of pH 6.8 phosphate buffer for 4 hours at 37° C. To terminate the reaction, 1 ml of phosphate buffer was added, the tubes vortexed, and 0.4 ml aliquots removed in triplicate and mixed with an equal volume of Norit SG activated charcoal (10% w/v, in 0.1N HCl). Following centrifugation at 2000×g for 10 min, the supernatants (0.5 ml) were placed in scintillation vials, scintillation fluid added, and vials counted in a TM Analytic 6895 scintillation counter equipped with a DPM processor.
Human foreskins were treated with the compounds shown in Table 1, placed in culture, and incubated for 72 hours. The skins were then assayed for tyrosinase activity with the tyrosine hydroxylase assay method as described herein.
The medium and compounds were changed daily. Tyrosinase activity was determined by measuring the tyrosine hydroxylase activity of the enzyme.
Human foreskin organ cultures were treated with the compounds listed in Table 3 for 3 days and tyrosinase activity determined as described herein. Theophylline was used at 1 mM.

[5] = test system: tyrosinase activity in human melanocytes from white-skinned individuals; experiment: Tyrosinase activity in human melanocytes from white skin; format: cell-based; conditions: cell strain 69W; up to four hours; FIG. 8
Procedure: as §1, §2
Dose/response parameters for ammonium chloride action were determined. […] Since tyrosinase is the rate-limiting enzyme for melanin synthesis, the stimulation of this enzyme by ammonium chloride should lead to increased melanin content of stimulated cells. […] Ammonium chloride increased tyrosinase activity in melanocytes from white-skinned individuals twenty-fold within 24 hours and by this time melanin contents had increased two-fold. Two other lysosomotropic agents, monensin and nigericin, were tested for their effects on tyrosinase activity. […] Thus, lysosomotropic agents have the ability to stimulate tyrosinase activity and melanin production in human melanocytes derived from white-skinned individuals, and to reduce melanin production in melanocytes from black-skinned people.

[6] = White skin (control 0.31 ± 0.03)
[7] = first Black skin (control 2.55 ± 0.13)
[8] = second Black skin (control 3.09 ± 0.12)

CNc1ccc2oc(C[C@H]3O[C@@]4(CC[C@H]3C)O[C@H]([C@H](C)C(=O)c3ccc[nH]3)[C@H](C)C[C@H]4C)nc2c1C(=O)O [A23187]
Effect on Tyrosinase Activity, Mouse Melanoma [1]: Inhibited | Effect on Tyrosinase Activity, Human Melanocyte [2]: No effect

C[C@]12CC[C@@H]3c4ccc(O)cc4CC[C@H]3[C@@H]1CC[C@@H]2O [Estradiol]
Effect on Tyrosinase Activity, Mouse Melanoma [1]: No Effect | Effect on Tyrosinase Activity, Human Melanocyte [2]: Inhibited

Cn1c(=O)c2[nH]cnc2n(C)c1=O [Theophylline, theophylline]
response of mouse melanoma cells ([1]; compounds that raise intracellular cAMP levels or MSH): respond vigorously | mimicking of the MSH response [3]: mimicked | activity at 1000 µM ([2]; Homo sapiens, Melanocyte, read-out: Effect on Tyrosinase Activity, Human Melanocyte): 150 to 200% | activity at 1000 µM [4, 6]: 307% | activity at 1000 µM [4, 7]: 212% | activity at 1000 µM [4, 8]: 197% | Tyrosinase activity stimulated, percentage of black foreskins [4]: 92% | Tyrosinase activity unaffected, percentage of black foreskins [4]: 8% | Tyrosinase activity stimulated, percentage of white foreskins [4]: 86% | Tyrosinase activity unaffected, percentage of white foreskins [4]: 14% | Tyrosinase Activity [4, 6]: 0.95 ± 0.05 pmoles ^3 H2 O/hr/mg skin | Tyrosinase Activity [4, 7]: 5.40 ± 0.26 pmoles ^3 H2 O/hr/mg skin | Tyrosinase Activity [4, 8]: 6.1 ± 0.24 pmoles ^3 H2 O/hr/mg skin | stimulation of tyrosinase activity [4]: stronger stimulation of tyrosinase

CCCCCCCCCCCCCC(=O)O[C@@H]1[C@@H](C)[C@@]2(O)[C@@H](C=C(CO)C[C@]3(O)C(=O)C(C)=C[C@@H]23)[C@@H]2C(C)(C)[C@]12OC(C)=O [TPA, 12-O-tetradecanoylphorbol 13-acetate]
Effect on Tyrosinase Activity, Human Melanocyte [2]: No effect

Insulin: Insulin
Effect on Tyrosinase Activity, Human Melanocyte [2]: No effect

C[C@]12CC[C@H]3[C@@H](CCC4=CC(=O)CC[C@@]43C)[C@@H]1CC[C@@H]2O [Testosterone]
Effect on Tyrosinase Activity, Mouse Melanoma [1]: No effect | Effect on Tyrosinase Activity, Human Melanocyte [2]: No effect

CCCCC[C@H](O)/C=C/[C@H]1[C@H](O)CC(=O)[C@@H]1CCCCCCC(=O)O [Prostaglandin E1]
Effect on Tyrosinase Activity, Human Melanocyte [2]: + (150-200%)

CC1(C)O[C@@H]2C[C@H]3[C@@H]4CCC5=CC(=O)C=C[C@]5(C)[C@@]4(F)[C@@H](O)C[C@]3(C)[C@]2(C(=O)CO)O1 [Triamcinolone acetonide]
Effect on Tyrosinase Activity, Mouse Melanoma [1]: ± (100-150% of control) | Effect on Tyrosinase Activity, Human Melanocyte [2]: ± (100-150% of control)

CC(=O)[C@H]1CC[C@H]2[C@@H]3CCC4=CC(=O)CC[C@]4(C)[C@H]3CC[C@]12C [Progesterone]
Effect on Tyrosinase Activity, Mouse Melanoma [1]: ± (100-150% of control) | Effect on Tyrosinase Activity, Human Melanocyte [2]: ± (100-150% of control)

C=C1CC[C@H](O)C/C1=C/C=C1\CCC[C@]2(C)[C@@H]([C@H](C)CCCC(C)C)CC[C@@H]12 [Vitamin D3]
Effect on Tyrosinase Activity, Mouse Melanoma [1]: No effect | Effect on Tyrosinase Activity, Human Melanocyte [2]: No effect

CCCC(=O)Nc1ncnc2c1ncn2[C@@H]1O[C@@H]2COP(=O)(O)O[C@H]2[C@H]1OC(=O)CCC [dbcAMP, dibutyryl cyclic AMP]
mimicking of the MSH response [3]: mimicked | Tyrosinase activity stimulated, percentage of black foreskins [4]: 33% | Tyrosinase activity unaffected, percentage of black foreskins [4]: 67% | Tyrosinase activity stimulated, percentage of white foreskins [4]: 25% | Tyrosinase activity unaffected, percentage of white foreskins [4]: 75% | stimulation of tyrosinase activity [4]: less effective in stimulating tyrosinase activity

CO[C@@H]1C[C@@H](C[C@H]2CC[C@H](C)[C@H]([C@@H](C)C(=O)O)O2)O[C@]2(O[C@](C)([C@H]3CC[C@@](C)([C@@H]4O[C@@H]([C@H]5O[C@@](O)(CO)[C@H](C)C[C@@H]5C)C[C@@H]4C)O3)C[C@H]2C)[C@@H]1C [nigericin]
stimulation of tyrosinase activity [5]: stimulated tyrosinase activity

Nc1ncnc2c1nc(Br)n2[C@@H]1O[C@@H]2COP(=O)(O)O[C@H]2[C@H]1O [8-bromo cAMP]
mimicking of the MSH response [3]: mimicked

CC[C@@]1([C@@H]2O[C@@H]([C@H]3O[C@@](O)(CO)[C@H](C)C[C@@H]3C)C[C@@H]2C)CC[C@H]([C@]2(C)CC[C@]3(C[C@H](O)[C@@H](C)[C@@H]([C@@H](C)[C@@H](OC)[C@H](C)C(=O)O)O3)O2)O1 [monensin]
stimulation of tyrosinase activity [5]: stimulated tyrosinase activity
